A short description of the series: Particle size analysis of dalcetrapib crystals (Malvern MasterSizer 2000, laser diffraction). Format: physicochemical. As to conditions: dispersant 0.1N HCl, sonicated 10 minutes. The method, then:
The particle size distribution of dalcetrapib crystals from the bulk API and in the matrix of a hot-melt extruded composition produced according to Example 1 was determined according to the following method:
A Malvern MasterSizer 2000 was used for particle size measurement. The Fraunhofer optical model employed for analysis. The sample handling unit was a Hydro 2000S sonicator: Elma Model 9331. Sample measurement time was 20,000 snaps. The sample background time was 20,000 snaps. The dispersant media was 0.1N HCl, and the pump/stir speed was 2000 RPM.
Sample preparation was as follows: About 10-15 mg of the sample was weighed in 20 mL scintillation vial and 10 mL of de-ionized 0.1N HCl was added. The sample was vortexed for 15 seconds and then sonicated for 10 minutes @ 100% power.
The particle size distribution of dalcetrapib crystals in the matrices of hot-melt extruded compositions produced according to Example 5 was determined according to the following method:
A Malvern MasterSizer® 2000 was used for particle size measurement. The Fraunhofer® optical model employed for analysis. The sample handling unit was a Hydro 2000S sonicator: Elma Model 9331. Sample measurement time was 20,000 snaps. The sample background time was 20,000 snaps. The dispersant media was 0.1N HCl, and the pump/stir speed was 2000 RPM
Sample preparation was as follows: About 10-15 mg of the sample was weighed in a 20 mL scintillation vial and 10 mL of de-ionized 0.1N HCl was added. The sample was vortexed for 15 seconds and then sonicated for 10 minutes at 100% power.

Regarding `CCC(CC)CC1(C(=O)Nc2ccccc2SC(=O)C(C)C)CCCCC1` [bulk dalcetrapib, dalcetrapib], the “mean particle diameter D(0.1)” value is 1.493 μm, the “mean particle diameter D(0.5)” value is recorded as 12.317 μm and the “mean particle diameter D(0.9)” value is recorded as 28.828 μm.

The values are drawn from patent publication US20120213827A1, “PROCESS FOR CONTROLLED CRYSTALLIZATION OF AN ACTIVE PHARMACEUTICAL INGREDIENT FROM SUPERCOOLED LIQUID STATE BY HOT MELT EXTRUSION” (priority 2011, published 2012).
